Read-outs that look alike come from different tables or passages of the source.
Tests used:
Assay type in all cases: in vivo
[1] = tested on: Spodoptera littoralis; assay: Example B1: Action against Spodoptera littoralis (sprayed soybean plants); settings: 72 h, read-out: reduction in the pest population (% activity)
Protocol: Young soybean plants are sprayed with an aqueous emulsion spray mixture comprising 12.5 ppm of test compound and, after the spray-coating has dried, the plants are populated with 10 caterpillars of Spodoptera littoralis in the first stage and then placed in a plastics container. 3 days later, the percentage reduction in population and the percentage reduction in feeding damage (% activity) are determined by comparing the number of dead caterpillars and the feeding damage on the treated plants with that on untreated plants.

[2] = tested on: Diabrotica balteata; assay: Example B6: Action against Diabrotica balteata (sprayed maize seedlings); settings: 144 h, read-out: reduction in the pest population (% activity)
Protocol: Maize seedlings are sprayed with an aqueous emulsion spray mixture comprising 12.5 ppm of the test compound and, after the spray-coating has dried, the maize seedlings are populated with 10 Diabrotica balteata larvae in the second stage and then placed in a plastics container. 6 days later, the percentage reduction in population (% activity) is determined by comparing the number of dead larvae on the treated plants with that on untreated plants.

[3] = tested on: Plutella xylostella; assay: Example B4: Action against Plutella xylostella caterpillars (sprayed cabbage plants); settings: 72 h, read-out: reduction in the pest population (% activity)
Protocol: Young cabbage plants are sprayed with an aqueous emulsion spray mixture comprising 12.5 ppm of test compound. After the spray-coating has dried, the cabbage plants are populated with 10 caterpillars of Plutella xylostella in the first stage and placed in a plastics container. Evaluation is made 3 days later. The percentage reduction in population and the percentage reduction in feeding damage (% activity) are determined by comparing the number of dead caterpillars and the feeding damage on the treated plants with that on the untreated plants.

[4] = tested on: Tetranychus urticae; assay: Example B7: Action against Tetranychus urticae (sprayed bean plants); settings: 144 h, read-out: reduction in the pest population (% activity)
Protocol: Young bean plants are populated with a mixed population of Tetranychus urticae and sprayed one day later with an aqueous emulsion spray mixture comprising 12.5 ppm of test compound. The plants are incubated for 6 days at 25° C. and subsequently evaluated. The percentage reduction in population (% activity) is determined by comparing the number of dead eggs, larvae and adults on the treated plants with that on untreated plants.

[5] = 12.5 ppm spray on young soybean plants, first-stage caterpillars, evaluated 3 days later vs untreated plants
[6] = 12.5 ppm spray on maize seedlings, second-stage larvae, evaluated 6 days later
[7] = 12.5 ppm spray on young cabbage plants, first-stage caterpillars, evaluated 3 days later
[8] = 12.5 ppm spray on young bean plants, mixed population, 6 days at 25° C.

Measured: inhibition at 12.5 ppm

Cc1ccc(C)c(C(=O)O)c1 [B.44, 2,5-dimethyl-benzoic acid]
> 80%: [1]; [5] | [2]; [6] | [3]; [7] | [4]; [8]

O=C(O)CCCOc1ccccc1 [B.70, 4-phenoxy-butyric acid]
> 80%: [1] | [2] | [3] | [4]

O=C(O)c1cccc(F)c1 [B.41, 3-fluoro-benzoic acid]
> 80%: [1]; [5] | [2]; [6] | [3]; [7] | [4]; [8]

O=C(O)c1ccccc1-c1ccccc1 [B.11, 2-phenyl-benzoic acid]
> 80%: [1]; [5] | [2]; [6] | [3]; [7] | [4]; [8]

CC(C)(C)c1ccc(C(=O)O)cc1 [B.71, 4-tert-butyl-benzoic acid]
> 80%: [1]; [5] | [2]; [6] | [3]; [7] | [4]; [8]

O=C(O)c1ccc(O)cc1O [B.82, 2,4-dihydroxy-benzoic acid]
> 80%: [1]; [5] | [2]; [6] | [3]; [7] | [4]; [8]

Cc1ccc(C(=O)O)cc1 [B.32, p-toluic acid]
> 80%: [1]; [5] | [2]; [6] | [3]; [7] | [4]; [8]
